“And” between values parts separate entries of the source, which are not always exact repeats. Identical values can stand only once.
Assay: Metal exchange reactions with Cu(II) followed by UV-Vis as a function of pH
Type: physicochemical
Protocol: Metal exchange reactions occurring with Cu(II) studied as a function of pH: a more detailed dissociation kinetic study was performed by using the Cu(II) ion. Metal exchange reactions occurring with Cu(II) were followed by UV-Vis as a function of the pH (in the pH range of 3.44–4.97) and metal ion concentration (20- and 40-fold excess of Cu(II) was applied), in order to evaluate the rates of spontaneous (k0 rate constant) and/or proton assisted (k1 rate constant) and/or metal ion provoked dissociation (kM).
As it can be seen in Figure 4, the rate constants (kobs) are proportional to the H^+ ion concentration, while they slightly decrease with the increasing Cu(II) concentration. Therefore, one can assume that [Mn(3,9-OPC2A)] dissociates by following spontaneous (the positive value of the intercept with the y axis) and proton assisted pathways, while Cu(II) is involved in the formation of a dinuclear intermediate with a relatively low stability [Mn(3,9-OPC2A)Cu]^2+, which is a “dead-end” complex (i.e., its formation reduces the concentration of the reactive protonated species, thereby slowing down the reaction). The dissociation pathways followed by [Mn(3,9-OPC2A)] can be accounted for by Equation (1), where [Mn(L)]t is the total concentration of the Mn(II) complex, and the k0, kH, and kM are the rate constants characterizing the spontaneous, the proton and metal ion assisted pathways, respectively. (1) −d[Mn(L)]/dt=kobs[Mn(L)]t=k0[Mn(L)]+kH[Mn(HL)]+kHHMnH2L+kM[Mn(L)Cu]
Using the expressions for the stability and protonation constants of the complexes, and that of the dinuclear intermediate [Mn(L)Cu], one can derive Equation (1) (in this expression k1 = kH × KMnL×H; k2 = kH^H × KMnL×H; × KMnLH×H; k3 = kM × KMnL×Cu; where KMnL×H; and KMnLH×H are the protonation constants of [Mn(3,9-OPC2A)] and KMnL×Cu is the stability constant of the dinuclear [Mn(3,9-OPC2A)Cu]^2+ intermediate, which is used for the fitting of the kobs rate data—the proton assisted dissociation pathways involving a diprotonated intermediate, characterized k2, play a negligible role in the dissociation of the [Mn(3,9-OPC2A)] complex under the experimental conditions used for kinetic studies. (2) kobs=k0+k1H^+/1+KHH^++KMCu^2+
Metal exchange reactions occurring between the complex and Cu(II) (in the presence of a 20- and 40-fold excess, to ensure pseudo-first-order conditions) was investigated at 25 °C and 0.15 M NaCl ionic strength, by using a JASCO V-760 UV-VIS spectrophotometer at 290 nm. […] The values of the pseudo-first-order rate constants (kobs) were determined using the following equation: At = Av + (A0 − Av)e^kobs×t, where At is the absorbance at time t, A0 is the absorbance of the reactants, and Av is the absorbance of the products.

t1/2 (h) at pH = 7.4 (extrapolated to pH = 7.4 from Cu(II) exchange rate constants, calculated with the use of k0 value, cZn(II) = 1 × 10^−5 M): 21.9 h
KML x Cu (stability constant of dinuclear intermediate, T = 25 °C, I = 0.15 M NaCl): 7 ± 4
SMILES: O=C([O-])CN1CCOCCN(CC(=O)[O-])Cc2cccc(n2)C1.[Mn+2] [[Mn(3,9-OPC2A)]]
k1 (proton assisted dissociation, T = 25 °C, I = 0.15 M NaCl): 2.81 ± 0.07 M⁻¹ s⁻¹ and 2.81 M⁻¹ s⁻¹
k0 (spontaneous dissociation, T = 25 °C, I = 0.15 M NaCl, to be treated as higher limit): (8.6 ± 1.1) × 10^−6 s^−1
